Laboratory results taken from patent US20230265167A1, “COMPOSITIONS HAVING NEUROREGENERATIVE APPLICATIONS” (GRIFOLS WORLDWIDE OPERATIONS LIMITED, priority 2020, published 2023).

Tests used:
[1] = system: C57BL/6J mice with transient MCAo; assay: Neuroscore recovery after transient MCAo; type: in vivo, mouse; conditions: FIG. 10A, 3-14 days after MCAo, vs saline
Protocol: C57BL/6J mice (ca. 20 g) were anaesthetized under isoflurane and, after dissection, a 6.0 silicon-coated monofilament suture was inserted into the external carotid artery to occlude the middle cerebral artery (MCAo). The occlusion was carried out for 60 minutes under temperature control.
Only animals with a ‘neuroscore’ of 4 or greater were considered for further testing (n=8-10 animals/group). At six hours post-occlusion, mice were injected daily with 350 mg/kg of Apo-transferrin (i.p.) or an equal volume of saline for a total of seven days, as well as with 50 mg/kg Bromodeoxyuridine (BrdU; Sigma-Aldrich Chemical, St. Louis, Mo.), both articles delivered by intraperitoneal administration. Weight changes were monitored daily.
Mice were prepared as indicated in Example 9 above and were subjected to assessments at 3 days and 1, 2, 3, 4 weeks post-MCAo, as indicated (n=8-10 animals/group). Motor coordination (i.e. equilibrium behavior and locomotor ability as a function of cortico-striatal function) was assessed using a rotarod test. Learning and memory capacity were measured using the NORT (novel object recognition test; for example, Anglada-Huguet et al., 2014, Molecular Neurobiology, vol. 49, pages 784-795; Denninger et al., 2018, J. Vis. Exp., vol. 141, e58593). […]

rat model of stroke = conditions: vs control rats; cited from earlier work

Substance: apo-transferrin: iron-free form of transferrin protein, obtained and purified from pooled human plasma
- rate of recovery (percentage of animals with neuroscore 0) [1]: quicker recovery
- rate of recovery (percentage of animals with neuroscore 0) ([1]; listed as ApoTf): significantly improves the rate at which the animals recover
- volume of the infarcted area (neuroprotective effect) (rat model of stroke): decrease in the volume of the infarcted area
